According to US8859580B2 (Boehringer Ingelheim International GmbH, priority 2007, dated 2014):

Each compound was assayed against T1, 11β-HSD1 (Homo sapiens, UniProt P28845) (assay: In vitro inhibition of 11β-HSD1, HTRF detection of cortisol generated from cortisone by human liver microsomes). Conditions: 11β-HSD IC50 (nM), 1 hour at 37° C., pH 6.0, NADPH 200 μM, cortisone 80 nM, inhibition relative to carbenoxolone signal.
T1 construct: detecting cortisol generated from cortisterone by human liver microsomes; from tissue; host or cells: human liver microsomes
Format: biochemical
Method in brief: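 Inhibition expressed against the carbenoxolone signal and fitted to IC50 curves. Readout: HTRF competition between microsomal cortisol and XL665-labelled cortisol for Eu-cryptate anti-cortisol antibody (typically 2 h), with emission ratio 665/615 calibrated to cortisol concentration.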

T1 sequence (P28845 whole entry): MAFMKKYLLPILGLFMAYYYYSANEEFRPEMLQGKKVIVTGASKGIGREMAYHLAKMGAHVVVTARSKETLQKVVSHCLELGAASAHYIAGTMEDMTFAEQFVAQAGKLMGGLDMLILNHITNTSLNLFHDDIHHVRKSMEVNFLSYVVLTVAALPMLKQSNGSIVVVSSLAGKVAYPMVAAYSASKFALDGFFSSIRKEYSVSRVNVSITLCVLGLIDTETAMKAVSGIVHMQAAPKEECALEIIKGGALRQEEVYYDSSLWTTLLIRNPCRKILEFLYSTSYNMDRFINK

Point of comparison: `COc1ccc2c(c1-n1cccc1)[C@]1(C)CCN(C(=O)c3ccc4nc[nH]c4c3)[C@H](C2)[C@H]1C` [Example 270, (3H-Benzoimidazol-5-yl)-[(2R,6R,11S)-8-methoxy-6,11-dimethyl-7-pyrrol-1-yl-1,2,5,6-tetrahydro-4H-2,6-methano-benzo[d]azocin-3-yl)-methanone], IC50 99 nM. Against it:
- CC1(C)[C@H]2Cc3c(cccc3S(C)(=O)=O)[C@]1(C)CCN2C(=O)c1ccc2nc[nH]c2c1 [Example 234, (3H-Benzoimidazol-5-yl)-[(2R,6S)-10-methanesulfonyl-6,11,11-trimethyl-1,2,5,6-tetrahydro-4H-2,6-methano-benzo[d]azocin-3-yl)-methanone] — 32-fold higher, 3120 nM
- C[C@@H]1[C@H]2Cc3ccc(-c4cccnc4)cc3[C@]1(C)CCN2C(=O)c1ccc2nc[nH]c2c1 [Example 250, (3H-Benzoimidazol-5-yl)-[(2R,6R,11S)-6,11-dimethyl-8-pyridin-3-yl-1,2,5,6-tetrahydro-4H-2,6-methano-benzo[d]azocin-3-yl]-methanone] — 1.9-fold lower, 53 nM
- Cn1nnc2cc3c(cc21)[C@]1(C)CCN(C(=O)c2ccc4nc[nH]c4c2)[C@H](C3)C1(C)C [Example 257, (3H-Benzoimidazol-5-yl)-[(6R,10S)-5,6,7,8,9,10-hexahydro-1,10,12,12-tetramethyl-6,10-methano-triazolo[5,4-i][3]benzazocin-7-yl]-methanone] — 2.1-fold higher, 209 nM
- CC1(C)[C@H]2Cc3ccccc3[C@]1(C)CCN2C(=O)c1ccc(O)nc1 [Example 303, (6-Hydroxy-pyridin-3-yl)-[(2R,6S)-6,11,11-trimethyl-1,2,5,6-tetrahydro-4H-2,6-methano-benzo[d]azocin-3-yl)-methanone] — 7.2-fold higher, 717 nM
- CC1(C)[C@H]2Cc3c(O)cccc3[C@]1(C)CCN2C(=O)c1cncn1-c1ccccc1 [Example 218, [(2R,6S)-10-Hydroxy-6,11,11-trimethyl-1,2,5,6-tetrahydro-4H-2,6-methano-benzo[d]azocin-3-yl]-(3-phenyl-3H-imidazol-4-yl)-methanone] — 27-fold higher, 2710 nM
- Cc1cc2c(cc1O)C[C@@H]1N(C(=O)c3ccc4nc[nH]c4c3)CC[C@@]2(C)C1(C)C (stereo in doubt) [Example 68, (3H-Benzoimidazol-5-yl)-[(2S,6R)-9-hydroxy-6,8,11,11-tetramethyl-1,2,5,6-tetrahydro-4H-2,6-methano-benzo[d]azocin-3-yl]-methanone] — 3.8-fold higher, 372 nM
- CC(=O)Nc1ccc2c(c1)CC1N(C(=O)c3ccc4nc[nH]c4c3)CCC2(C)C1(C)C (centres unmarked) [Example 179, N-[3-(3H-Benzoimidazole-5-carbonyl)-6,11,11-trimethyl-1,2,3,4,5,6-hexahydro-2,6-methano-benzo[d]azocin-9-yl]-acetamide] — 2-fold higher, 199 nM
- Cn1cnc2cc(C(=O)N3CC[C@@]4(C)c5cccc(O)c5C[C@@H]3C4(C)C)ccc21 [Example 19, [(2R,6S)-10-Hydroxy-6,11,11-trimethyl-1,2,5,6-tetrahydro-4H-2,6-methano-benzo[d]azocin-3-yl]-(1-methyl-1H-benzoimidazol-5-yl)-methanone] — 6.6-fold higher, 658 nM
- CC12CCN(C(=O)c3ccc4nc[nH]c4c3)C(Cc3cc(C(N)=O)ccc31)C2(C)C (centres unmarked) [Example 163, 3-(3H-Benzoimidazole-5-carbonyl)-6,11,11-trimethyl-1,2,3,4,5,6-hexahydro-2,6-methano-benzo[d]azocine-9-carboxylic acid amide] — 2.5-fold higher, 249 nM
- C[C@@H]1[C@H]2Cc3ccc(-c4ccc(=O)n(C)c4)cc3[C@]1(C)CCN2C(=O)c1ccc2nc[nH]c2c1 [Example 289, 5-[(2R,6R,11S)-3-(3H-Benzoimidazole-5-carbonyl)-6,11-dimethyl-1,2,3,4,5,6-hexahydro-2,6-methano-benzo[d]azocin-8-yl]-1-methyl-1H-pyridin-2-one] — within 1.5-fold, 121 nM
- Cn1cnc2cc3c(cc21)[C@]1(C)CCN(C(=O)c2ccc4nc[nH]c4c2)[C@H](C3)C1(C)C [Example 241, (3H-Benzoimidazol-5-yl)-[(6R,10S)-5,6,7,8,9,10-hexahydro-1,10,12,12-tetramethyl-6,10-methano-imidazo[5,4-i][3]benzazocin-7-yl]-methanone] — 2.1-fold higher, 204 nM
- COC1CCN(Cc2ccc(C(=O)N3CC[C@@]4(C)c5cccc(O)c5C[C@@H]3C4(C)C)cc2)CC1 [Example 189, [(2R,6S)-10-Hydroxy-6,11,11-trimethyl-1,2,5,6-tetrahydro-4H-2,6-methano-benzo[d]azocin-3-yl]-[4-(4-methoxy-piperidin-1-ylmethyl)-phenyl]-methanone] — 23-fold higher, 2270 nM
- Cc1nc2ccc(C(=O)N3CC[C@@]4(C)c5cccc(O)c5C[C@@H]3C4(C)C)cc2[nH]1 [Example 17, [(2R,6S)-10-Hydroxy-6,11,11-trimethyl-1,2,5,6-tetrahydro-4H-2,6-methano-benzo[d]azocin-3-yl]-(2-methyl-3H-benzoimidazol-5-yl)-methanone] — 14-fold higher, 1380 nM
- CC(=O)Nc1cccc(C(=O)N2CC[C@@]3(C)c4cccc(O)c4C[C@@H]2C3(C)C)c1 [Example 9, N-{3-[(2R,6S)-10-Hydroxy-6,11,11-trimethyl-1,2,5,6-tetrahydro-4H-2,6-methano-benzo[d]azocine-3-carbonyl]-phenyl}-acetamide] — 20-fold higher, 1980 nM
- C[C@@H]1[C@H]2Cc3cc(C#N)c(O)cc3[C@]1(C)CCN2C(=O)c1ccc2nc[nH]c2c1 [Example 223, (2R,6R,11S)-3-(3H-Benzoimidazole-5-carbonyl)-8-hydroxy-6,11-dimethyl-1,2,3,4,5,6-hexahydro-2,6-methano-benzo[d]azocine-9-carbonitrile] — within 1.5-fold, 106 nM
- COc1ccc2c(c1)[C@]1(C)CCN(C(=O)c3ccccc3[N+](=O)[O-])[C@H](C2)[C@@H]1C [Example 108, [(2R,6R,11R)-8-Methoxy-6,11-dimethyl-1,2,5,6-tetrahydro-4H-2,6-methano-benzo[d]azocin-3-yl]-(2-nitro-phenyl)-methanone] — within 1.5-fold, 140 nM
- C[C@@H]1[C@H]2Cc3ccc(-c4ccccc4)cc3[C@]1(C)CCN2C(=O)c1ccc2nc[nH]c2c1 [Example 249, (3H-Benzoimidazol-5-yl)-[(2R,6R,11S)-6,11-dimethyl-8-phenyl-1,2,5,6-tetrahydro-4H-2,6-methano-benzo[d]azocin-3-yl)-methanone] — 2.7-fold higher, 265 nM
- CC1(C)[C@H]2Cc3c(O)cccc3[C@]1(C)CCN2C(=O)c1ccc(CN2CCCC2)cc1 [Example 120, [(2R,6S)-10-Hydroxy-6,11,11-trimethyl-1,2,5,6-tetrahydro-4H-2,6-methano-benzo[d]azocin-3-yl]-(4-pyrrolidin-1-ylmethyl-phenyl)-methanone] — 39-fold higher, 3840 nM
- Cc1cc(C(=O)N2CC[C@@]3(C)c4cccc(O)c4C[C@@H]2C3(C)C)ccc1C(=O)N1CCCC1 [Example 35, [(2R,6S)-10-Hydroxy-6,11,11-trimethyl-1,2,5,6-tetrahydro-4H-2,6-methano-benzo[d]azocin-3-yl]-[3-methyl-4-(pyrrolidine-1-carbonyl)-phenyl]-methanone] — 6.8-fold higher, 672 nM
- CC1(C)[C@H]2Cc3c(O)cccc3[C@]1(C)CCN2C(=O)c1cccnc1 [Example 127, [(2R,6S)-10-Hydroxy-6,11,11-trimethyl-1,2,5,6-tetrahydro-4H-2,6-methano-benzo[d]azocin-3-yl]-pyridin-3-yl-methanone] — 15-fold higher, 1470 nM
- CC[C@]12CCN(C(=O)c3ccc4nc[nH]c4c3)[C@H](Cc3ccc(O)cc31)[C@@H]2C (racemic) [Example 87, (3H-Benzoimidazol-5-yl)-(6-ethyl-8-hydroxy-11-methyl-1,2,5,6-tetrahydro-4H-2,6-methano-benzo[d]azocin-3-yl)-methanone] — 6.3-fold higher, 622 nM
- CC(C)(O)c1cccc(C(=O)N2CC[C@@]3(C)c4ccccc4C[C@@H]2C3(C)C)c1 [Example 317, [3-(1-Hydroxy-1-methyl-ethyl)-phenyl]-[(2R,6S)-6,11,11-trimethyl-1,2,5,6-tetrahydro-4H-2,6-methano-benzo[d]azocin-3-yl]-methanone] — 2.2-fold higher, 217 nM
- C[C@@H]1[C@H]2Cc3ccc(-c4ccc(=O)n(C)n4)cc3[C@]1(C)CCN2C(=O)c1ccc2nc[nH]c2c1 [Example 290, 6-[(2R,6R,11S)-3-(3H-Benzoimidazole-5-carbonyl)-6,11-dimethyl-1,2,3,4,5,6-hexahydro-2,6-methano-benzo[d]azocin-8-yl]-2-methyl-2H-pyridazin-3-one] — within 1.5-fold, 72 nM
- CC[C@H]1[C@H]2Cc3ccc(O)cc3[C@]1(CC)CCN2C(=O)c1ccc2nc[nH]c2c1 (racemic) [Example 86, (3H-Benzoimidazol-5-yl)-(6,11-diethyl-8-hydroxy-1,2,5,6-tetrahydro-4H-2,6-methano-benzo[d]azocin-3-yl)-methanone] — 24-fold higher, 2400 nM
- CCOC(=O)c1ccc2c(c1)CC1N(C(=O)c3ccc4nc[nH]c4c3)CCC2(C)C1(C)C (centres unmarked) [Example 97, 3-(1H-Benzoimidazole-5-carbonyl)-6,11,11-trimethyl-1,2,3,4,5,6-hexahydro-2,6-methano-benzo[d]azocine-9-carboxylic acid ethyl ester] — 11-fold higher, 1130 nM
- CC12CCN(C(=O)c3ccc4nc[nH]c4c3)C(Cc3cc4c(cc31)OCO4)C2(C)C (centres unmarked) [Example 143, (8,9-Methylenedioxy-6,11,11-trimethyl-1,2,5,6-tetrahydro-4H-2,6-methano-benzo[d]azocin-3-yl)-(3H-benzoimidazol-5-yl)-methanone] — within 1.5-fold, 123 nM
- CC1(C)[C@H]2Cc3c(O)cccc3[C@]1(C)CCN2C(=O)c1coc2ccccc12 [Example 198, Benzofuran-3-yl-[(2R,6S)-10-hydroxy-6,11,11-trimethyl-1,2,5,6-tetrahydro-4H-2,6-methano-benzo[d]azocin-3-yl]-methanone] — 4.4-fold higher, 435 nM

Same assay, conditions: 1 hour at 37° C., pH 6.0, NADPH 200 μM, cortisone 80 nM, inhibition relative to carbenoxolone signal, read-out: 11β-HSD IC50

With `O=C(c1ccc2nc[nH]c2c1)N1CCC2CC1c1ccc(O)cc12` (centres unmarked) [Example 100, (3H-Benzoimidazol-5-yl)-(4-hydroxy-9-aza-tricyclo[6.3.1.0*2,7*]dodeca-2,4,6-trien-9-yl)-methanone] the IC50 was 564 nM.
